Experimental data from article PMC8986850, “Development and exploration of novel substituted thiosemicarbazones as inhibitors of aldose reductase via in vitro analysis and computational study” (Scientific Reports, 2022).

Tests used:
ALR1 = biological target: T1, ALR1 (Bos taurus, UniProt Q3ZCJ2); assay: ALR1 enzyme inhibition assay (enzyme extracted from calf kidneys); format: biochemical, bovine; conditions: bovine kidney ALR1, 100 µM inhibitor; read-out: I (%, 100 µM) (ALR1)
T1 construct: The calf’s kidneys were obtained after slaughtering and dissection; from tissue; host or cells: calf kidneys
T1 sequence (Q3ZCJ2 whole entry): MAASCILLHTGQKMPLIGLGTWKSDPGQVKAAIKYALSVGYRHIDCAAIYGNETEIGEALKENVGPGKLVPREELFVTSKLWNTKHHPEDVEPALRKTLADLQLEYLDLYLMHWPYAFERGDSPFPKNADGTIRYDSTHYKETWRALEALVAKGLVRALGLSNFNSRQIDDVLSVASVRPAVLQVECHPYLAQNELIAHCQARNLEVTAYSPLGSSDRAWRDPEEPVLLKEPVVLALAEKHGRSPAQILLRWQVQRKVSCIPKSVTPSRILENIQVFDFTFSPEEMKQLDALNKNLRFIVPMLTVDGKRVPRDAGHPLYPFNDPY
Method: Compounds 3a-o were tested against ALR2 to evaluate their inhibitory potential against aldose reductase whereas selectivity was determined via performing ALR1 inhibition assay. For the enzyme inhibition assay, ALR2 and ALR1 were extracted from bovine sources (ALR2 from eyes and ALR1 from kidneys). Moreover, inhibitions studies were also carried out on the expressed ALR2 (human AKR1B1) and inhibition data for ALR2- bovine source and expressed enzyme was compared and analyzed. The protocols for enzyme extraction and expression in the bacterial system are included in the section of “Supporting information”. […] For the purpose of comparison and validation of enzyme inhibition data, these compounds were tested against human AKR1B1 (hAKR1B1) expressed in E. coli BL21 (DE3). We found a similar pattern of enzyme inhibition for the synthesized compounds against extracted enzyme (ALR2) as well as expressed enzyme (hAKR1B1).
(§1) For the determination of enzyme activity of ALR1 and ALR2, 100 µL of reaction mixture was composed of 20 µL of buffer (100 mM sodium phosphate, pH 6.2), 30 µL of enzyme extract, 20 µL of substrate (10 mM), 20 µL of cofactor (0.1 mM of NADPH) and 10 µL of test compound (1 mM)[6],[21]. The reaction mixture without cofactor was incubated at 32°C for 10 min, then the enzymatic reaction was initiated with the addition of NADPH and monitored for 5 minutes. Similar protocols were followed for ALR1 and ALR2, however the substrate was different for each enzyme, with sodium-D-glucoronate and DL-glyceraldehyde used as the substrates for the ALR1 and ALR2 assays, respectively. […] In addition, similar protocols were adopted for human AKR1B1 that was expressed in E. coli BL21 (DE3), though the determined protein concentration was 12 µg/mL for the expressed enzyme. Detailed protocols for the preparation of ALR1, ALR2 and expressed human AKR1B1 can be found in the supporting information.
(§2) The newly synthesized N-substitute thiosemicarbazones (3a-o) were dissolved in 100% DMSO and diluted with deionized water, keeping the DMSO concentration equal to 0.1% in the assay.
The calf’s kidneys were obtained after slaughtering and dissection, dissolved in 3 volumes of sodium phosphate buffer (10mM) which is composed of 2.0 mM EDTA, 2.5mM β-mercaptoethanol, 0.25M solution of sucrose at pH 7.25. First, the homogenisation was carried out then centrifugation of the homogenate was performed at 12000 x g at 0-2^◦C for 30 minutes. The precipitates containing insoluble lipids were discarded and the collected supernatant layer was treated with 40% saturation of ammonium sulphate. This liquid mixture was subjected to centrifugation at 11000 x g at 0-2^◦C for 30 minutes. Now, precipitates were again discarded and supernatant was collected and treated with 50% ammonium sulphate and procedure was repeated in the same manner as in previous step. In the last step, the saturation of ammonium sulphate was increased up to 75% and supernatant was subjected to same parameter of centrifugation. At this final step, precipitates were obtained and supernatant layer was discarded. The obtained material of precipitates was composed of ALR1and redissolved in initial buffer that was used during homogenisation. Finally, material was dialyzed overnight with same buffer system. The dialyzed fractions containing ALR1 were stored at -80^◦C for further use[5].

[1] = DPPH radical scavenging activity; conditions: 100 µM compound, methanolic DPPH 0.025 mg/mL, 517 nm
Method: DPPH (2,2-diphenyl-1-picrylhydrazyl) was used to explore the free radical quenching ability of 3a-o so as to provide a gauge of their antioxidant potential. The experiment was conducted according to a previously reported protocol with slight modifications. Percent free radical scavenging activities (% FRSA) of 3a-o were determined by spectrophotometric analysis at 517 nm using a homogenous mixture of methanolic DPPH (0.025 mg/mL) and a 100 µM solution of the tested compound, with ascorbic acid used as a positive control (Fig. 3).

ALR2 = biological target: T2, ALR2 (Bos taurus, UniProt P16116); assay: ALR2 enzyme inhibition assay (enzyme extracted from calf lenses); format: biochemical, bovine
T2 construct: from tissue; host or cells: calf eye lenses
Method: Compounds 3a-o were tested against ALR2 to evaluate their inhibitory potential against aldose reductase whereas selectivity was determined via performing ALR1 inhibition assay. For the enzyme inhibition assay, ALR2 and ALR1 were extracted from bovine sources (ALR2 from eyes and ALR1 from kidneys). Moreover, inhibitions studies were also carried out on the expressed ALR2 (human AKR1B1) and inhibition data for ALR2- bovine source and expressed enzyme was compared and analyzed. The protocols for enzyme extraction and expression in the bacterial system are included in the section of “Supporting information”. […] For the purpose of comparison and validation of enzyme inhibition data, these compounds were tested against human AKR1B1 (hAKR1B1) expressed in E. coli BL21 (DE3).
as §1, §2
The extraction of ALR2 was carried out from calf lenses via adopting method described in
in (Hayman and Kinoshita 1965) with little modification. The lenses were obtained from slaughterhouse immediately after calf’s slaughtering and stored at -20^◦C until further use. These lense (150-170g) were subjected to homogenization with about three times volume of cold distilled water and then centrifugation was carried out for the homogenate at 10,000 x g for 14 minutes for removal of insoluble lipids particles. Precipitates were discarded and supernatant layer was subjected to 40% saturation of ammonium sulphate and again centrifugation was performed with same parameters for 14 minutes and again precipitates were discarded. […] In the last step, the supernatant was subjected to 75% of saturation with ammonium sulphate to obtain ALR2. Now, the precipitates were collected instead supernatant because precipitated protein was the expected desired ALR2. The precipitated enzyme (ALR2) was redissolved in 50mM solution of sodium chloride and dialyzed for 24 hours against 50mM solution (3.5L) of NaCl. The volume was recorded before and after dialysis, then dialyzed material was treated with liquid nitrogen. The extracted ALR2 was stored in 1mL Eppendorf tube in deep freezer at -80 ^◦C till further enzymatic studies.

CC(C)(C)c1cc(C=NNC(=S)Nc2ccccc2F)c(O)c(C(C)(C)C)c1 [Compound 3m, 2-(3,5-di-tert-butyl-2-hydroxybenzylidene)-N-(2-fluorophenyl)hydrazine carbothioamide]
inhibition at 100 µM (ALR1): 4.27 to 26.2%
% FRSA (percent free radical scavenging activity) [1]: 75.95%
melting point: 180 to 182 °C
inhibition at 100 µM (ALR2; bovine lens ALR2, 100 µM inhibitor, read-out: I (%, 100 µM) (ALR2) (converted)): 85.1%
IC50 (ALR2; bovine lens ALR2, substrate DL-glyceraldehyde, mean ± SEM of three measurements): 1180 ± 3.4 nM
